Laboratory results from ChEMBL document CHEMBL5126586, “Chemical analysis of amyloid β aggregation inhibitors derived from Geranium thunbergii” (Bioorg Med Chem, 2022).

Legend:
[1] = target: T1, Amyloid-beta precursor protein (Homo sapiens, UniProt P05067); assay: Inhibition of amyloid beta 1 to 42 aggregation (unknown origin) incubated for 24 hrs by ThT fluorescence assay
[2] = target: T1, Amyloid-beta precursor protein; assay: Inhibition of amyloid beta 1 to 42 aggregation (unknown origin) incubated for 24 hrs by inverted fluorescence microscopic analysis
[3] = target: T1, Amyloid-beta precursor protein; assay: Inhibition of amyloid beta 1 to 42 aggregation (unknown origin) incubated for 24 hrs by ThT fluorescence assay relative to control; conditions: concentration not given here
[4] = target: T1, Amyloid-beta precursor protein; assay: Inhibition of amyloid beta 1 to 42 aggregation (unknown origin) incubated for 24 hrs by inverted fluorescence microscopic analysis relative to control; conditions: concentration not given here

T1 sequence (P05067 whole entry): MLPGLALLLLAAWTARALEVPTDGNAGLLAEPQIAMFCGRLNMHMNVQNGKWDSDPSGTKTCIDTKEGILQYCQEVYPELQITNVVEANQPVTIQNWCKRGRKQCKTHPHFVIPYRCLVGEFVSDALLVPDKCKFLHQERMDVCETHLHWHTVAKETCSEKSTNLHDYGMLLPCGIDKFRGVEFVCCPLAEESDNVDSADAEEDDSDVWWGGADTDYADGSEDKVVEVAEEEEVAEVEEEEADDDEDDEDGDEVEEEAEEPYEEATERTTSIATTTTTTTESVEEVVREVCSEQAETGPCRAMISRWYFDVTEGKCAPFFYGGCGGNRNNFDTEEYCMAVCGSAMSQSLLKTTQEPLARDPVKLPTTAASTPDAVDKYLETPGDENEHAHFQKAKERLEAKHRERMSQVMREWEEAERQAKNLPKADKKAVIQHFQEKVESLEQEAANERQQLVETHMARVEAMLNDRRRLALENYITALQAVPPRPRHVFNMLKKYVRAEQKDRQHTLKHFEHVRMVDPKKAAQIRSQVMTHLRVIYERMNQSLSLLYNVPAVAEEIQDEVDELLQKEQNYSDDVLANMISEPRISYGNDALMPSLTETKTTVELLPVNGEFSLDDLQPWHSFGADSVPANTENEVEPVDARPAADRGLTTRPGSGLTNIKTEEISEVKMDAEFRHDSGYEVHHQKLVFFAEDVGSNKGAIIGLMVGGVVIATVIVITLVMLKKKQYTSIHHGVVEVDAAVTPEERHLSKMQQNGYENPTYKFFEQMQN

O=C(O[C@@H]1O[C@@H]2COC(=O)c3cc(O)c(O)c(O)c3-c3c(cc(O)c(O)c3O)C(=O)O[C@H]([C@H]1O)[C@@H]2O)c1cc(O)c(O)c(O)c1 [CORILAGIN]
EC50 [1]: 14 µM
EC50 [2]: 5.04 µM
inhibition [3]: 14%
inhibition [4]: 25%

O=c1oc2c(O)c(O)cc3c(=O)oc4c(O)c(O)cc1c4c23 [ELLAGIC ACID]
EC50 [2]: 563 µM
inhibition [3]: < 0.01%
inhibition [4]: 0.15%

O=C1O[C@H]2[C@@H]3OC(=O)c4cc(O)c(O)c(O)c4-c4c(cc(O)c(O)c4O)C(=O)OC[C@H]2O[C@@H](OC(=O)c2cc(O)c(O)c(O)c2)[C@@H]3OC(=O)c2cc(O)c(O)c3c2[C@@H]2C1=CC(=O)[C@](O)(O3)C2(O)O [GERANIIN]
EC50 [1]: 10.5 µM
EC50 [2]: 7.03 µM

O=C(O)c1cc(O)c(O)c(O)c1 [GALLIC ACID]
EC50 [1]: 9.99 µM
EC50 [2]: 18.8 µM
inhibition [4]: 92%

O=C(O)c1cc(O)c(O)c(O)c1-c1c(C(=O)O)cc(O)c(O)c1O
EC50 [2]: 562 µM
inhibition [3]: < 0.01%
inhibition [4]: < 0.01%
